# Assay results: the supplement of paper PMC10307832
# Assays:
# Assay in all cases: relative viability (nuclei count vs DMSO), 5 days (fraction); higher = more cells survive
# TPCA-1 + Phenformin = compound: C1=CC(=CC=C1C2=CC(=C(S2)NC(=O)N)C(=O)N)F [TPCA-1] + N=C(N)NC(=N)NCCc1ccccc1 [Phenformin] (partner 250 µM)
# Summary of the method: (§1)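 Five library-drug doses in √10 steps were combined with a fixed anchor-drug dose, or a single drug was given alone, by pin tool to lung cancer cell lines in 1536-well plates the day after seeding. Nuclei were stained and counted after 5 days. Relative viability is the nuclei count in treated wells over that in vehicle wells, taken as the median of duplicate plates.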
# [1] = compound: C[C@]12O[C@H](C[C@]1(O)CO)n1c3ccccc3c3c4c(c5c6ccccc6n2c5c31)CNC4=O [Lestaurtinib] + Cc1cc(Nc2cc(N3CCN(C)CC3)nc(Sc3ccc(NC(=O)C4CC4)cc3)n2)n[nH]1 [Tozasertib] (partner 0.1 µM)
# Summary of the method: as §1
# TPCA-1 + Pictilisib = compound: C1=CC(=CC=C1C2=CC(=C(S2)NC(=O)N)C(=O)N)F [TPCA-1] + CS(=O)(=O)N1CCN(Cc2cc3nc(-c4cccc5[nH]ncc45)nc(N4CCOCC4)c3s2)CC1 [Pictilisib] (partner 1 µM)
# Summary of the method: as §1
# TPCA-1 + Bortezomib = compound: C1=CC(=CC=C1C2=CC(=C(S2)NC(=O)N)C(=O)N)F [TPCA-1] + CC(C)C[C@H](NC(=O)[C@H](Cc1ccccc1)NC(=O)c1cnccn1)B(O)O [Bortezomib] (partner 0.002 µM)
# Summary of the method: as §1
cell line,measurement,setting,value
UMC-11,relative viability,TPCA-1 + Phenformin; first compound 0.04 µM,0.373
same,relative viability,TPCA-1 + Phenformin; first compound 0.1265 µM,0.299
same,relative viability,TPCA-1 + Phenformin; first compound 0.4 µM,0.36
same,relative viability,TPCA-1 + Phenformin; first compound 1.265 µM,0.307
same,relative viability,TPCA-1 + Phenformin; first compound 4 µM,0.171
same,relative viability,[1]; first compound 0.005 µM,0.21
same,relative viability,[1]; first compound 0.01581 µM,0.206
same,relative viability,[1]; first compound 0.05 µM,0.217
same,relative viability,[1]; first compound 0.1581 µM,0.18
same,relative viability,[1]; first compound 0.5 µM,0.179
same,relative viability,TPCA-1 + Pictilisib; first compound 0.04 µM,0.781
same,relative viability,TPCA-1 + Pictilisib; first compound 0.1265 µM,0.685
same,relative viability,TPCA-1 + Pictilisib; first compound 0.4 µM,0.881
same,relative viability,TPCA-1 + Pictilisib; first compound 1.265 µM,0.735
same,relative viability,TPCA-1 + Pictilisib; first compound 4 µM,0.127
same,relative viability,TPCA-1 + Bortezomib; first compound 0.04 µM,0.663
same,relative viability,TPCA-1 + Bortezomib; first compound 0.1265 µM,0.667
same,relative viability,TPCA-1 + Bortezomib; first compound 0.4 µM,0.798
same,relative viability,TPCA-1 + Bortezomib; first compound 1.265 µM,0.735
same,relative viability,TPCA-1 + Bortezomib; first compound 4 µM,0.134
